Measured values reported in article PMC5599990, “Matriptase Induction of Metalloproteinase‐Dependent Aggrecanolysis In Vitro and In Vivo: Promotion of Osteoarthritic Cartilage Damage by Multiple Mechanisms” (Arthritis & Rheumatology (Hoboken, N.j.), 2017).

Target: T1, matriptase (Homo sapiens, UniProt Q9Y5Y6)
T1 construct: gene ST14; catalytic domain; amino acids 596–855
T1 sequence (Q9Y5Y6 596-855): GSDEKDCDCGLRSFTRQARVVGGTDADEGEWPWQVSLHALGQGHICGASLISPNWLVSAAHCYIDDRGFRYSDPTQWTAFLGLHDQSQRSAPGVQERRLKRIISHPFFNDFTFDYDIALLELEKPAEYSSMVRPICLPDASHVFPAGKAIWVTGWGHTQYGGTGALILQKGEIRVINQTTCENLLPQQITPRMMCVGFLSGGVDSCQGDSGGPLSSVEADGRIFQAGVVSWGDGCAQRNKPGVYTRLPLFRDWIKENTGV
Assay: isothermal titration calorimetry at […] °C ([…] stoichiometry); also enzyme inhibition, Ki =[…]
Assay type: binding

## N=C(N)c1cccc(C[C@H](NS(=O)(=O)c2cccc(NC(=O)CCN)c2)C(=O)N2CCC(CCN)CC2)c1 [compound 59, (S)‐3‐amino‐N‐(3‐(N‐(1‐(4‐(2‐aminoethyl)piperidin‐1‐yl)‐3‐(3‐carbamimidoylphenyl)‐1‐oxopropan‐2‐yl)sulfamoyl)phenyl)propanamide × 3HCl]
  Kd: 20 nM
